Data from EP0097446B1, “Penicillin derivatives and process for preparation of the same” (TAIHO PHARMACEUTICAL COMPANY LIMITED, priority 1982, dated 1984).
In brackets after ≈: the same amount, converted by molar mass. Where two headings read alike, the source gives them in different places. One block for each molecule: values may come before it.

What was measured:
E.coli TH—397 = test: MIC by micro-broth dilution method; assay type: cell-based; conditions: Escherichia coli, 20 h, Table 2, read-out: MIC, Ampicillin (singly used)
Procedure: (§1) In the method, the bacteria cultivated in Mueller Hinton Broth (product of DIFCO) and diluted to 10' CFU/ml were inoculated into the same medium containing ampicillin and the present compound in a specific concentration, and incubated at 37°C for 20 hours. […] The bacteria as used in the test were those capable of producing β-lactamase, among which the bacteria marked ^* in the table are those collected from the living body of human hosts and the others are a stock culture.

P.Mirabilis 121 = test: MIC by micro-broth dilution method; assay type: cell-based; conditions: Proteus mirabilis, 20 h, Table 2, read-out: MIC, Ampicillin (singly used)
Procedure: as §1, with “The MIC of ampicillin as combined with the present compound (10 µg/ml) was measured against the same bacteria. In” for “In”

E.coli TH—13 = test: MIC by micro-broth dilution method; assay type: cell-based; conditions: Escherichia coli, 20 h
Procedure: as §1, with “The MIC of ampicillin as combined with the present compound (10 µg/ml) was measured against the same bacteria. In” for “In”
(§2) The same test as above was carried out to determine the antibacterial activity of the sodium 2β-(4,5-dimethoxycarbonyl-1,2,3-triazole-1-yl)methyl-2a-methylpenam-3a-carboxylate-1,1-dioxide (Compound 26) obtained in Example 24.

E.coli TH—34 = test: MIC by micro-broth dilution method; assay type: cell-based; conditions: Escherichia coli, 20 h, Table 3, inoculate 10^7 CFU/ml, singly used
Procedure: as §1, with “The MIC of ampicillin as combined with the present compound (10 µg/ml) was measured against the same bacteria. In” for “In”
as §2

P.mirabilis 121—1 = test: MIC by micro-broth dilution method; assay type: cell-based; conditions: Proteus mirabilis, 20 h, Table 3, inoculate 10^7 CFU/ml, singly used
Procedure: as §1, with “The MIC of ampicillin as combined with the present compound (10 µg/ml) was measured against the same bacteria. In” for “In”
as §2

P.vulgaris IID OX—19 = test: MIC by micro-broth dilution method; assay type: cell-based; conditions: Proteus vulgaris, 20 h
Procedure: as §1, with “The MIC of ampicillin as combined with the present compound (10 µg/ml) was measured against the same bacteria. In” for “In”
as §2

S.aureus ATCC 90124 = test: MIC by micro-broth dilution method; assay type: cell-based; conditions: Staphylococcus aureus, ATCC90124, 20 h
Procedure: as §1, with “The MIC of ampicillin as combined with the present compound (10 µg/ml) was measured against the same bacteria. In” for “In”
as §2

S.aureus S—54 = test: MIC by micro-broth dilution method; assay type: cell-based; conditions: Staphylococcus aureus
Procedure: as §1, with “The MIC of ampicillin as combined with the present compound (10 µg/ml) was measured against the same bacteria. In” for “In”
as §2

S.marcescens TH—05 = test: MIC by micro-broth dilution method; assay type: cell-based; conditions: Serratia marcescens, 20 h
Procedure: as §1, with “The MIC of ampicillin as combined with the present compound (10 µg/ml) was measured against the same bacteria. In” for “In”
as §2

[1] = tested on: 30 strains of coliform bacilli collected from the living body of humans; test: MIC50 and MIC70 against 30 clinical strains, antibiotics alone and combined with present compound; assay type: cell-based; conditions: for MIC50: Homo sapiens, 20 h, concentration inhibiting growth of 50% of 30 strains; for MIC70, Present compound as combined with ampicillin: MIC of ampicillin with present compound (10 pg/ml [sic]); for MIC70, Present compound as combined with ampicillin / MIC70, Present compound as combined with cephalexin / MIC70, Present compound as combined with mecillinam / MIC70, Present compound as combined with piperacillin: 70% of 30 strains; for MIC70, Present compound as combined with cephalexin: MIC of cephalexin with present compound (10 pg/ml [sic]); for MIC70, Present compound as combined with mecillinam: MIC of mecillinam with present compound (10 pg/ml [sic]); for MIC70, Present compound as combined with piperacillin: MIC of piperacillin with present compound (10 pg/ml [sic])
Procedure: as §1, with “The MIC of ampicillin as combined with the present compound (10 µg/ml) was measured against the same bacteria. In” for “In”
The compounds of the present invention, ampicillin, mecillinam, piperacillin and cephalexin, each singly used, were also tested for minimal inhibitory concentration against 30 strains of coliform bacilli collected from the living body of humans. The MIC of each antibiotic as combined with the present compound (10 pg/ml) was likewise measured. Table 4 to 7 indicate the results in which MlC50 and MlC70 indicate the minimal inhibitory concentration for inhibiting the growth of 50% and 70% respectively of the strains. The MICs of the present compounds singly used were all more than 25 µg/ml.

[2] = molecular target: penicillinase (β-lactamase) from Bacillus SP; test: β-lactamase inhibitory activity by microiodometry, penicillin G as substrate; assay type: biochemical; conditions: read-out: 50% Inhibitory Concentration
Procedure: The inhibitory activity against penicillinase (β-lactamase) from Bacillus SP was measured by . microiodometry [Tanpakushitsu Kakusan Koso (Protein Nucleic Acid Enzyme), vol. 23, No. 5, pp 391-400 (1978)] using a penicillin G as a substrate.

[3] = molecular target: penicillinase (β-lactamase) from Bacillus SP; test: β-lactamase inhibitory activity by pH stat method, penicillin G as substrate; assay type: biochemical; conditions: read-out: 50% β-lactamase inhibitory concentration
[4] = Table 2, read-out: MIC, Ampicillin (singly used)
[5] = Table 3, inoculate 10^7 CFU/ml, singly used, read-out: MIC, Ampicillin
[6] = concentration inhibiting growth of 70% of 30 strains
[7] = Table 3, inoculate 10^7 CFU/ml, singly used, read-out: MIC, Comp. 26

MIC (E.coli TH—397): 400 µg/mL (≈ 1140 µM)
MIC (P.Mirabilis 121): > 400 µg/mL
MIC (E.coli TH—13; [4]): 400 µg/mL (≈ 1140 µM)
MIC (E.coli TH—13; [5]): 400 µg/mL (≈ 1140 µM)
MIC (E.coli TH—34; read-out: MIC, Ampicillin): 800 µg/mL (≈ 2290 µM)
MIC (P.mirabilis 121—1; read-out: MIC, Ampicillin): 800 µg/mL (≈ 2290 µM)
MIC (P.vulgaris IID OX—19; [4]): 100 µg/mL (≈ 286 µM)
MIC (P.vulgaris IID OX—19; [5]): 25 µg/mL (≈ 71.5 µM)
MIC (S.aureus ATCC 90124; [4]): 25 µg/mL (≈ 71.5 µM)
MIC (S.aureus ATCC 90124; [5]): 50 µg/mL (≈ 143 µM)
MIC (S.aureus S—54; 20 h, Table 3, inoculate 10^7 CFU/ml, singly used, read-out: MIC, Ampicillin): 100 µg/mL (≈ 286 µM)
MIC (S.aureus S—54; Table 2, 37°C, 20 hours, read-out: MIC, Ampicillin (singly used)): 25 µg/mL (≈ 71.5 µM)
MIC (S.marcescens TH—05; [4]): > 400 µg/mL
MIC (S.marcescens TH—05; [5]): 800 µg/mL (≈ 2290 µM)
MIC50 ([1]; read-out: MIC50, Ampicillin singly used): 400 µg/mL
MIC70, Ampicillin singly used [1, 6]: >400 µg/mL
Compound: CC1(C)S[C@@H]2[C@H](NC(=O)[C@H](N)c3ccccc3)C(=O)N2[C@H]1C(=O)O [Ampicillin, ampicillin]

MIC50 ([1]; read-out: MIC50, Cephalexin singly used): 25 µg/mL
MIC70, Cephalexin singly used [1, 6]: 100 µg/mL
Compound: CC1=C(C(=O)O)N2C(=O)[C@@H](NC(=O)[C@H](N)c3ccccc3)[C@H]2SC1 [Cephalexin, cephalexin, reference compound]

Compound: CCOC(=O)c1cn(C[C@@]2(C)[C@H](C(=O)O)N3C(=O)C[C@H]3S2(=O)=O)nn1 [Compound 7, sodium 2β-(4-ethoxycarbonyl-1,2,3-triazole-1-yl)methyl-2α-methylpenam-3α-caboxylate-1,1-dioxide]
IC50 [2]: 54 nM
MIC70, Present compound as combined with ampicillin [1]: 50 µg/mL
MIC70, Present compound as combined with cephalexin [1]: 100 µg/mL
MIC70, Present compound as combined with mecillinam [1]: 0.39 µg/mL
MIC70, Present compound as combined with piperacillin [1]: 6.25 µg/mL

Compound: CCOC(=O)c1cnnn1C[C@@]1(C)[C@H](C(=O)O)N2C(=O)C[C@H]2S1(=O)=O [Compound 11, sodium 2β-(5-ethoxycarbonyl-1,2,3-triazole-1-yl)methyl-2α-methylpenam-3α-carboxylate-1,1-dioxide]
IC50 [2]: 340 nM
MIC70, Present compound as combined with ampicillin [1]: 100 µg/mL
MIC70, Present compound as combined with cephalexin [1]: 100 µg/mL
MIC70, Present compound as combined with mecillinam [1]: 0.39 µg/mL
MIC70, Present compound as combined with piperacillin [1]: 25 µg/mL

Compound: COC(=O)c1cn(C[C@@]2(C)[C@H](C(=O)O)N3C(=O)C[C@H]3S2(=O)=O)nn1 [Compound 12, sodium 2β-(4-methoxycarbonyl-1,2,3-triazole-1-yl)methyl-2a-methylpenam-3α-carboxylate-1,1-dioxide]
IC50 [2]: 49 nM

Compound: COC(=O)c1cnnn1C[C@@]1(C)[C@H](C(=O)O)N2C(=O)C[C@H]2S1(=O)=O [Compound 13, sodium 2β-(5-methoxycarbonyl-1,2,3-triazote-1-yl)methyl-2α-methylpenam-3α-carboxylate-1,1-dioxide]
IC50 [2]: 300 nM

Compound: C[C@]1(Cn2cc(C(=O)O)nn2)[C@H](C(=O)O)N2C(=O)C[C@H]2S1(=O)=O [Compound 16, dipotassium 2β-(4-carboxy-1,2,3-triazole-1-yl)methyl-2α-methylpenam-3α-carboxylate-1,1-dioxide]
IC50 [2]: 600 nM
MIC70, Present compound as combined with ampicillin [1]: 6.25 µg/mL
MIC70, Present compound as combined with cephalexin [1]: 25 µg/mL
MIC70, Present compound as combined with mecillinam [1]: 0.1 µg/mL
MIC70, Present compound as combined with piperacillin [1]: 3.13 µg/mL

Compound: C[C@]1(Cn2nncc2C(=O)O)[C@H](C(=O)O)N2C(=O)C[C@H]2S1(=O)=O [Compound 17, dipotassium 2β-(5-carboxy-1,2,3-triazole-1-yl)methyl-2α-methylpenam-3α-carboxylate-1,1-dioxide]
IC50 [2]: 1700 nM
MIC70, Present compound as combined with ampicillin [1]: 100 µg/mL
MIC70, Present compound as combined with cephalexin [1]: 12.5 µg/mL
MIC70, Present compound as combined with mecillinam [1]: 0.39 µg/mL
MIC70, Present compound as combined with piperacillin [1]: 50 µg/mL

Compound: C[C@]1(Cn2ccnn2)[C@H](C(=O)O)N2C(=O)C[C@H]2S1(=O)=O [Compound 22, sodium 2α-methyl-2β-(1,2,3-triazole-1-yl)-methylpenam-3α-carboxylate-1,1-dioxide]
IC50 [2]: 690 nM
MIC70, Present compound as combined with ampicillin [1]: 6.25 µg/mL
MIC70, Present compound as combined with cephalexin [1]: 50 µg/mL
MIC70, Present compound as combined with mecillinam [1]: 0.2 µg/mL
MIC70, Present compound as combined with piperacillin [1]: 1.56 µg/mL

Compound: C[C@]1(Cn2cc([Si](C)(C)C)nn2)[C@H](C(=O)O)N2C(=O)C[C@H]2S1(=O)=O [Compound 24, sodium 2α-methyl-2β-(4-trimethylsilyl-1,2,3-triazole-1-yl)-methylpenam-3α-carboxylate-1,1-dioxide]
IC50 [2]: 510 nM

Compound: COC(=O)c1nnn(C[C@@]2(C)[C@H](C(=O)O)N3C(=O)C[C@H]3S2(=O)=O)c1C(=O)OC [Compound 26, sodium 2β-(4,5-dimethoxycarbonyl-1,2,3-triazole-1-yl)-methyl-2α-methylpenam-3α-carboxylate-1,1-dioxide]
IC50 [3]: 300 nM
MIC (E.coli TH—13; [7]): > 50 µg/mL
MIC (E.coli TH—34; read-out: MIC, Comp. 26): > 50 µg/mL
MIC (P.mirabilis 121—1; read-out: MIC, Comp. 26): > 50 µg/mL
MIC (P.vulgaris IID OX—19; [7]): 25 µg/mL
MIC (S.aureus ATCC 90124; [7]): > 50 µg/mL
MIC (S.aureus S—54; 20 h, Table 3, inoculate 10^7 CFU/ml, singly used, read-out: MIC, Comp. 26): > 50 µg/mL
MIC (S.marcescens TH—05; [7]): > 50 µg/mL

Compound: C[C@]1(Cn2nnc(C(=O)O)c2C(=O)O)[C@H](C(=O)O)N2C(=O)C[C@H]2S1(=O)=O [Compound 39, tri-sodium 2β-(4,5-dicarboxy-1,2,3-triazole-1-yl)methyl-2α-methylpenam-3α-carboxylate-1,1-dioxide]
IC50 [2]: 2300 nM

MIC50 ([1]; read-out: MIC50, Mecillinam singly used): 3.13 µg/mL
MIC70, Mecillinam singly used [1, 6]: 12.5 µg/mL
Compound: CC1(C)S[C@@H]2[C@H](/N=C/N3CCCCCC3)C(=O)N2[C@H]1C(=O)O [Mecillinam, mecillinam, reference compound]

MIC50 ([1]; read-out: MIC50, Piperacillin singly used): 50 µg/mL
MIC70, Piperacillin singly used [1, 6]: 200 µg/mL
Compound: CCN1CCN(C(=O)N[C@@H](C(=O)N[C@@H]2C(=O)N3[C@@H]2SC(C)(C)[C@@H]3C(=O)O)c2ccccc2)C(=O)C1=O [Piperacillin, piperacillin, reference compound]
